Measurements taken from BindingDB's records for doi:10.1111/j.1747-0285.2008.00638.x (Mcgill University/Royal Victoria Hospital, 2008).
pIC50: −log10 of the molar value.

Each compound was assayed against Epidermal growth factor receptor (Homo sapiens, UniProt P00533) (assay: Kinase Enzyme Assay). Conditions: 37 °C.
Description: EGFR kinase assay was perform using Nunc MaxiSorp purchased from Nalge Nunc Interantional.

Chain of Epidermal growth factor receptor (P00533 whole entry): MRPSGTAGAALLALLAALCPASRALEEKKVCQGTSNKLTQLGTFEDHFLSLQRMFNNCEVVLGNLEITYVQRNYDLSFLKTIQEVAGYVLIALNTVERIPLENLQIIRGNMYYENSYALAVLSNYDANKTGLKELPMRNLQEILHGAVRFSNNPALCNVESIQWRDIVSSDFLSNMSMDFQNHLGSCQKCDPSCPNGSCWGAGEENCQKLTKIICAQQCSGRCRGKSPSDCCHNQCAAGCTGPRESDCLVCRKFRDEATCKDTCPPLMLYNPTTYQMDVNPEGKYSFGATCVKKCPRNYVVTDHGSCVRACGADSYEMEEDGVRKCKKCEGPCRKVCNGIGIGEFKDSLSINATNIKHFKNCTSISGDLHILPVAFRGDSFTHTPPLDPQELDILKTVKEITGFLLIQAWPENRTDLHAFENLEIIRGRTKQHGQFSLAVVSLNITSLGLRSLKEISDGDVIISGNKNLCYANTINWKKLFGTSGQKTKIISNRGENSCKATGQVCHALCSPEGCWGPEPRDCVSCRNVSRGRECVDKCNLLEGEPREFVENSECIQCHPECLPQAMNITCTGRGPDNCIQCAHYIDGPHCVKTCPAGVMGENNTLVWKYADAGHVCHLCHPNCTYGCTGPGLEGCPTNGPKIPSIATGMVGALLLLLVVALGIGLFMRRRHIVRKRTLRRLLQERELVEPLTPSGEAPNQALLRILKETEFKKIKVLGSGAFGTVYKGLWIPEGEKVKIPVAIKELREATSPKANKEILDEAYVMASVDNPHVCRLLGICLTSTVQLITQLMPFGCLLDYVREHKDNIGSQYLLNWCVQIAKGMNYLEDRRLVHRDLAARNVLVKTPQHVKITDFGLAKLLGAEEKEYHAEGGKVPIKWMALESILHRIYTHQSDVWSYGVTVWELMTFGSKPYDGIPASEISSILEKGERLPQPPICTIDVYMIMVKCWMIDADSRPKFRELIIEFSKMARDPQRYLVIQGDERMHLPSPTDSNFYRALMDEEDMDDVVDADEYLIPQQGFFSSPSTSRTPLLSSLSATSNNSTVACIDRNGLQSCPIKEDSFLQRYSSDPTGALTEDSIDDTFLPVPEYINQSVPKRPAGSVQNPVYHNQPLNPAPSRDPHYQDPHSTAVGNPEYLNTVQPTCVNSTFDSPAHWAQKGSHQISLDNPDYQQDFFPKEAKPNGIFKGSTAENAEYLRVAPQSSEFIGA

Row | pIC50 | SMILES
1 | 6.02 | Cc1cccc(Nc2ncnc3ccc(/N=N/N(C)CCN(CCN4CCOCC4)CCN(C)/N=N/c4ccc5ncnc(Nc6cccc(C)c6)c5c4)cc23)c1 [Bis-quinazolinotriazene, 5a]
2 | 6.92 | CN(CCN(CCN1CCOCC1)CCN(C)/N=N/c1ccc2ncnc(Nc3cccc(Br)c3)c2c1)/N=N/c1ccc2ncnc(Nc3cccc(Br)c3)c2c1 [Bis-quinazolinotriazene, 5b]
3 | 6.82 | CN(CCN(CCN1CCOCC1)CCN(C)/N=N/c1ccc2ncnc(Nc3cccc(Cl)c3)c2c1)/N=N/c1ccc2ncnc(Nc3cccc(Cl)c3)c2c1 [Bis-quinazolinotriazene, 5c]
